{"source": "patent US7396643B2", "about": "“Method for the screening, the detection and/or the quantification of transcriptional factors” (Eppendorf Array Technologies, S.A., priority 2000, dated 2008)", "format_in_all_cases": "cell-based", "key": {"AP-1": {"test_system": "AP-1", "test": "Microwell colorimetric DNA-binding assay, AP-1 (anti-c-fos)", "conditions": "nuclear extracts of WI-38 VA13 cells stimulated 30 min, 0.1 μg/ml PMA + 1 μM ionomycin, FIG. 2C", "text": "Step 1: Binding of the Double Strand Oligonucleotidic Probe on Multi-well Plates\nThe spacer double strand nucleotide sequences were constructed from the following CMV sequence: • 5′[…] (SEQ ID NO:146) acting as a spacer was linked to a) the NFκB consensus oligonucleotide 5′[…]-3′ (SEQ ID NO:147) b) the CREB consensus oligonucleotide 5′[…]-3′ (SEQ ID NO:148) and c) the AP-1 consensus oligonucleotide 5′[…]-3′ (SEQ ID NO:149). In the example the spacer was of 100 based pairs. […] Plates are then washed and the amount of DNA fixed on streptavidin-coated plates was quantified using the picogreen assay (Molecular Probes, OR, USA). […]\n• cells were rinsed with cold PBS150 • cells were left swollen during 3 min in a cold hypotonic buffer (20 mM Hepes pH 7.4, 5 mM NaF, 1 mM Na2MoO4, 0.1 mM EDTA). • Cells were scrapped in 0.5 ml of hypotonic buffer containing 0.2% nonidet P40 and immediately centrifuged during 30 sec at maximal speed (13000 rpm). • The pellet was resuspended in 100 μl of lysis buffer (hypotonic buffer containing 20% glycerol, 0.4 M NaCl, phosphatases and proteases inhibitors cocktail). • The nuclear extract was agitated 30 min at 4° C., and then centrifuged for 10 min at maximal speed (13000 rpm) at 4° C. • The supernatant (=nuclear extract) was frozen at −80° C. and its proteic content was determined by the Bradford assay. […]"}, "NFκB": {"test_system": "NFκB", "test": "Microarray assay for DNA-binding activity of NFκB in nuclear cell extracts", "conditions": "nuclear extracts of WI-38 VA 13 fibroblasts; anti-p50, gold-labelled second antibody, silver; unstimulated cells gave 10", "procedure": "Step 1: Binding of the Probes on Glass\nActivated glass slides bearing aldehyde groups were purchased from AAT (Belgium).\nThe slides were first incubated in 0.8 ml of a 50 μg/ml streptavidin solution in a 10 mM phosphate buffer (pH 7.4) containing 10 mM NaCl (PBS10 buffer). After 1 h incubation at 20° C., the plates were washed 3 times for 2 min in PBS150 containing 0.02% Tween 20 and then 2 times 2 min with water. The plates were then incubated for 2 h at 20° C. in 20 ml of PBS150 solution containing 10% non fat dried milk and then washed 5 times 2 min in PBS150 solution.\nSpotting was performed with the NFκB consensus probe or with the CREB consensus probe as in example 1. The capture probes were printed onto the microscopic slides with a home made robotic device. 250 μm pins from Genetix (UK) were used. The spots have an average of 400 μm in diameter and the volume dispensed is about 1 nl. The concentration of probes used was 3000 nmolaire. […]\nThere was no signal for the negative control, while in nuclear cell extracts, activated NFκB is detectable in cell stimulated with IL-1, with a much higher intensity than in unstimulated. The results obtained with the nuclear cell extracts have been quantitated, using a calorimetric microarray reader including the quantification software (AAT, Namur, Belgium). […]"}, "CREB": {"test_system": "CREB", "test": "Microarray assay of P-CREB, influence of the spacer", "conditions": "whole cell lysates of WI-38 VA 13 fibroblasts, 10 μg/ml forskolin", "procedure": "Step 1: Binding of the Probes on Glass.\nThe binding of probes was obtained as described in the example 3 using the consensus sequence of NF-KB or CREB alone or with a spacer of 50, 100, 150 and 250 bp constructed from the sequence given in example 1.\nStep 2 :Binding of NFκB on the Double Strand Probe Fixed on Micro-array\nThis assay was performed with whole cell lysates from WI-38 VA 13 fibroblasts stimulated with IL-1β (a NFκB activator) or 10 μg/ml of forskolin(to activate CREB). The control was 20 μl of lysis buffer mixed with 30 μl of binding buffer.\nSteps 3, 4 and 5: Binding of Antibodies and Detection\nThe binding of the primary anti-NFκB and anti-PCREB antibodies was then used for reaction on the factors followed by a second gold labelled antibody and a calorimetric detection as in example 3. […] The values for P-CREB with unstimulated cells were 5.5 and 4 respectively with no spacer and with a 100 base spacer. The values for stimulated cells were respectively of 7 and 21 respectively with no spacer and a spacer of 100 bases pairs."}}}
{"compound": "CCCCCCCCCCCCCC(=O)O[C@@H]1[C@@H](C)[C@@]2(O)[C@@H](C=C(CO)C[C@]3(O)C(=O)C(C)=C[C@@H]23)[C@@H]2C(C)(C)[C@]12OC(C)=O", "note": "[PNA]", "values": [{"measurement": "signal obtained for the assay of c-fos (AP-1)", "setting": "AP-1", "result": "strongly induced"}]}
{"compound": "IL-1: a NFκB activator used to stimulate cells", "values": [{"measurement": "spot intensity for activated NFκB, stimulated cells", "setting": "NFκB", "result": 175, "unit": "grey intensity"}]}
{"compound": "C=C[C@@]1(C)CC(=O)[C@]2(O)[C@@]3(C)[C@@H](O)CCC(C)(C)[C@@H]3[C@H](O)[C@H](OC(C)=O)[C@@]2(C)O1", "note": "[forskolin]", "values": [{"measurement": "value for P-CREB, stimulated cells, spacer of 100 base pairs", "setting": "CREB; probe with 100 bp spacer, unstimulated cells gave 4", "result": 21}, {"measurement": "value for P-CREB, stimulated cells, no spacer", "setting": "CREB; probe with no spacer, unstimulated cells gave 5.5", "result": 7}]}
